According to patent US20250255893A1, “ISOPROPYL-D-GLUCOPYRANOSIDE DERIVATIVE, AND PREPARATION METHOD THEREFOR AND USE THEREOF” (NATIONAL TSING HUA UNIVERSITY, priority 2021, published 2025):

Experiments:
[1] = system: hippocampal neurons; assay: In vitro hippocampal neuron repair (scratch injury, gap closure rate); type: cell-based, rat; settings: 72 hours
Protocol: (§1) The experimental procedure is depicted in FIG. 2. Removed the brain of E18 rat embryos and dissected into cortex and hippocampus. Subsequently, the cortex and hippocampus were separated into cortical neurons and hippocampal neurons, respectively. Then, seeded hippocampal neurons on 48-well plates. The first day that neurons are cultured in vitro is defined as day in vitro 0 (DIV0). On DIV2, Cytosine beta-D-arabinoside (AraC) was added to neurons to inhibit the proliferation of glial cells. On DIV8, neurons were injured using pipette tips (p10 tips) and 9.674 nM to 967.4 μM Ampelopsisionoside was added. 0.1% DMSO served as the solvent control group, and the results in the figures were standardized against the 0.1% DMSO group. After 72 hours, immunostaining was performed. TUJ1 antibody was used to label neuronal cells to observe the regrowth of neurites. Images were taken using Observer Z1 microscope.
(§2) As depicted in FIG. 3, the degree of neuronal axon regeneration was quantified using the gap closure rate. White dashed lines indicate the borders of injury gap, the central black area represents the region scratched by the tip of a pipette tips. The newly regenerated neurites grow from the white dashed lines toward the center of the gap. To quantify the results, we measured the lengths of gap (Lg) and distance between regenerated neurites (Ln) every 50 m. After unbiasedly drawing ten lines of equal distance, the average distance between neurites is taken: Length of gap between regenerated neurons (Ln). Gap closure rate is calculated using the formula: (Lg−Ln)/Lg. Scale bar=100 m. Images were taken using Observer Z1 microscope.
(§3) Removed the brain of E18 rat embryos and dissected into cortex and hippocampus. Subsequently, the cortex and hippocampus were separated into cortical neurons and hippocampal neurons, respectively. Then, seeded hippocampal neurons on 48-well plates. The first day that neurons are cultured in vitro is defined as day in vitro 0 (DIV0). On DIV2, Cytosine beta-D-arabinoside (AraC) was added to neurons to inhibit the proliferation of glial cells. […]

[2] = system: cortical neurons; assay: In vitro cortical neuron repair (scratch injury, gap closure rate); type: cell-based, rat; settings: 72 hours
Text: as §2
as §1, with “Removed” for “The experimental procedure is depicted in FIG. 2. Removed”, “seeded cortical” for “seeded hippocampal”, “to 96.74” for “to 967.4”, “neurites. Scale bar=100 m.” for “neurites.”
as §3, with “seeded cortical” for “seeded hippocampal”

[3] = system: injured brain sections; assay: Ex vivo 3D brain slice culture, neurite outgrowth after scalpel injury; type: cell-based; settings: 350 μm rat embryo brain sections, added every day, 96 hours, vs ddH2O
Protocol: (§4) The experimental procedure is depicted in FIG. 10. Took out the brain of rat embryos and embedded in low-melting agarose. The brains were sectioned using Leica microtome VT100. The tissue sections were collected with 350 μm thick and injured using a scalpel. ddH2O or Ampelopsisionside was added to injured brain sections every day. After 96 hours, immunostaining was performed. TUJ1 antibody was used to label neuron cells. GFAP antibody was used to label glial cells. DAPI was used to label nucleus. Scale bar=100 m. Images were taken using Zeiss LSM800 confocal microscope.
as §4, with “Byzantionoside B” for “Ampelopsisionside”
as §4, with “Roseoside” for “Ampelopsisionside”, “μm.” for “m.”

[4] = system: retinal explants; assay: Ex vivo retinal explant neuronal repair; type: cell-based, C57BL/6 mice; settings: five days, vs ddH2O
Protocol: Retinal explants were obtained from C57BL/6 mice at postnatal day 8. Following the sacrifice of mice, the eyes were enucleated, and the eyeballs were dissected using forceps and microscissors to separate the retina and remove the vitreous. Subsequently, the dissected retinas were quartered and trimmed along the edges of the tissue using microscissors. Each quarter was cultured on an 18 mm round coverslip and placed in a 12-well plate inside a CO2 incubator at 35° C. for five days. The culture medium was replaced daily with fresh medium containing either 13.5 µM or 135 µM Byzantionoside B. On the fifth day of culture, the retinal tissues were fixed with a mixture of 0.1% glutaraldehyde solution and 4% paraformaldehyde at room temperature for one hour. Immunostaining was performed using primary antibodies against the axonal marker beta-III-tubulin (TUJ1) and DAPI to label neurons and cell nuclei, respectively. Images were acquired using a super-resolution upright confocal microscope (LSM-800, Carl Zeiss). […] The ratio of neuronal fiber area to tissue boundary perimeter was then calculated to determine the unit perimeter neuronal fiber length.
Retinal explants were obtained from C57BL/6 mice at postnatal day 8. […] The ratio of neuronal fiber area to tissue boundary perimeter was then calculated to determine the unit perimeter neuronal fiber length.

**Q.** With `C[C@H](/C=C/[C@@]1(O)[C@H](C)CC(=O)CC1(C)C)O[C@@H]1O[C@H](CO)[C@@H](O)[C@H](O)[C@H]1O` [Ampelopsisionoside] as the molecule, how does the “neurite regrowth after injury (gap closure rate)” value ([1]; 9.674 nM to 967.4 μM, vs 0.1% DMSO) read?
**A.** Its value is “promotes neurite regrowth after injury”.

**Q.** What about the “dendritic outgrowth (gap closure rate)” value ([2]; 9.674 nM to 96.74 μM, vs 0.1% DMSO) of the same molecule?
**A.** The value was “effectively promotes dendritic outgrowth”.

**Q.** And the “neurite outgrowth from injury site” value [3]?
**A.** The value was “promotes neurite outgrowth”.

**Q.** `CC1=CC(=O)CC(C)(C)[C@H]1CC[C@@H](C)O[C@@H]1O[C@H](CO)[C@@H](O)[C@H](O)[C@H]1O` [Byzantionoside B] was tested. Which “neurite regrowth after injury (gap closure rate)” value ([1]; 0.13 M to 1342 μM, vs ddH2O) did it give?
**A.** Its value is “promotes neurite regrowth after injury”.

**Q.** And the “neurite outgrowth (gap closure rate)” value ([2]; 1.34 M to 26.84 M, vs ddH2O)?
**A.** The value was “effectively promotes neurite outgrowth”.

**Q.** And the “neurite outgrowth from injury site” value [3]?
**A.** Its value is “promotes neurite outgrowth”.

**Q.** And the “recovery of injured retinal neurons (unit perimeter neuronal fiber length)” value ([4]; 13.5 M or […])?
**A.** Its value is “significant recovery of injured retinal neurons”.

**Q.** What does the source list for `CC1=CC(=O)CC(C)(C)[C@@]1(O)/C=C/[C@@H](C)O[C@@H]1O[C@H](CO)[C@@H](O)[C@H](O)[C@H]1O` [Roseoside]?
**A.** neurite regrowth after injury (gap closure rate) ([1]; 0.013 M to 1294 μM, vs ddH2O): promotes neurite regrowth after injury; dendritic outgrowth (gap closure rate) ([2]; 1.29 M to 25.88 M, vs ddH2O): effectively promotes dendritic outgrowth; neurite outgrowth from injury site [3]: promotes neurite outgrowth; recovery of injured retinal neurons (unit perimeter neuronal fiber length) ([4]; 13 μM or 130 μM): significant recovery of injured retinal neurons
